Laboratory results: patent US10857149B2, “Liquid formulations of salts of 1-[2-(2,4-dimethylphenylsulfanyl)phenyl]-piperazine” (H. Lundbeck A/S, priority 2009, dated 2020)
Entries after “also recorded” stand apart in the source; their conditions may differ. Structures can show the parent of a compound that is named as a salt. Where two headings read alike, the source gives them in different places. Values belong to the compound of their own block, whether it stands above or below them.

Key:
serotonin transporter = serotonin transporter (Homo sapiens, UniProt P31645); details: cited from earlier work
Chain of serotonin transporter (P31645 whole entry): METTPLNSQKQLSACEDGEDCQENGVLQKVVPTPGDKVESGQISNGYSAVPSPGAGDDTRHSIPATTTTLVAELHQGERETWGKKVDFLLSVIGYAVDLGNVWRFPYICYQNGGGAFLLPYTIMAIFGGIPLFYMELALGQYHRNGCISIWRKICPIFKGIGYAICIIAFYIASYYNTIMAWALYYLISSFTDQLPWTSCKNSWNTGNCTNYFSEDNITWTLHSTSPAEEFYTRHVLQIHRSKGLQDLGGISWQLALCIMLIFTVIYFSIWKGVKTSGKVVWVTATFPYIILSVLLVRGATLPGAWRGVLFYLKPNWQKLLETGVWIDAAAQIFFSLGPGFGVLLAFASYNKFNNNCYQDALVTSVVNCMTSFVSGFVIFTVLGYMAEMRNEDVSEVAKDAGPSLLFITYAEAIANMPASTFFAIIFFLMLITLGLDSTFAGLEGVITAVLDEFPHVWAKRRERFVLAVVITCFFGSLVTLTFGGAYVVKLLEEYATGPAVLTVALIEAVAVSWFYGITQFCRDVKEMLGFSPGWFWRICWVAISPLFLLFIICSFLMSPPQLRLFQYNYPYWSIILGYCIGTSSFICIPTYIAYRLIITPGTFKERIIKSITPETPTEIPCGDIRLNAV

5-HT3 receptor = target: T1, 5-HT3 receptor (Homo sapiens, UniProt P46098); details: listed as compound I; cited from earlier work
T1 sequence (P46098 24-478): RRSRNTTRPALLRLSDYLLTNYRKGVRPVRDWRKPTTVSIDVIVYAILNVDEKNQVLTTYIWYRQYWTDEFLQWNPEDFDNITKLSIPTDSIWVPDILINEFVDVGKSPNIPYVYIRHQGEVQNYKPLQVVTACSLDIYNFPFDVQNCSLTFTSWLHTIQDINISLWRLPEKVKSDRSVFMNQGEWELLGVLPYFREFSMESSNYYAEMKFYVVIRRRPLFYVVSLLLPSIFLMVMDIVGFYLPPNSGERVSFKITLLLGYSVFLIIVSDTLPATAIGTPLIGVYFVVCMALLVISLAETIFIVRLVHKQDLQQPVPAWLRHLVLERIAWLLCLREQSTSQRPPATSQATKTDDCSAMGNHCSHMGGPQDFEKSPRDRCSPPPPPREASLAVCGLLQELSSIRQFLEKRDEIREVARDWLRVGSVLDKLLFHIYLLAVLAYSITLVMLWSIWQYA

[1] = room temperature, previously known salt forms, Table 2 (WO 2008/113359), cited from earlier work
[2] = system: extracellular levels of serotonin, noradrenaline, dopamine and acetylcholine; details: rat brains; cited from earlier work
[3] = Crystal form behaviour on exposure to water / aqueous slurry; assay type: physicochemical; details: exposed to water / aqueous slurry
[4] = Room temperature (aqueous) solubility of salt forms; assay type: physicochemical; details: for aqueous solubility: concentration equivalent to free base; for Solubility: lactate forms, Table 1; for pH at the solubility value: printed in the solubility cell
[5] = depressed patients; cited from earlier work

SMILES: Cc1ccc(Sc2ccccc2N2CCNCC2)c(C)c1 [Compound I, 1-[2-(2,4-dimethylphenylsulfanyl)phenyl]piperazine]
action at the serotonin transporter (serotonin transporter): inhibition
action at the serotonin transporter (serotonin transporter; listed as compound I): inhibitor
action at the 5-HT3 receptor (5-HT3 receptor): antagonist; also recorded: antagonism
Solubility ([1]; listed as Crystalline base): 0.1 mg base/mL
extracellular levels of serotonin, noradrenaline, dopamine and acetylcholine [2]: increase

SMILES: Cc1ccc(Sc2ccccc2N2CCNCC2)c(C)c1 [D-(−)-tartrate, 1-[2-(2,4-dimethyl-phenylsulfanyl)-phenyl] piperazine]
Solubility [1]: ~0.4 mg base/mL

SMILES: CC(O)C(=O)O.Cc1ccc(Sc2ccccc2N2CCNCC2)c(C)c1 [DL-lactate MH, 1-[2-(2,4-dimethyl-phenylsulfanyl)-phenyl] Piperazine, DL-Lactate]
transformation of crystal form in water [3]: transformed into the beta form in aqueous slurry

SMILES: CC(O)C(=O)O.Cc1ccc(Sc2ccccc2N2CCNCC2)c(C)c1 [DL-lactate α, 1-[2-(2,4-dimethyl-phenylsulfanyl)-phenyl] piperazine, DL-Lactate]
transformation of crystal form in water ([3]; listed as α form): transformed into the β form in the aqueous slurry

aqueous solubility [4]: 8 mg/mL
Solubility ([4]; room temperature): 8 mg base/mL
pH at the solubility value ([4]; room temperature): 6
SMILES: CC(O)C(=O)O.Cc1ccc(Sc2ccccc2N2CCNCC2)c(C)c1 [DL-lactate β, 1-[2-(2,4-dimethyl-phenylsulfanyl)-phenyl] Piperazine, DL-Lactate]

SMILES: CC(O)C(=O)O.Cc1ccc(Sc2ccccc2N2CCNCC2)c(C)c1 [DL-lactate γ, 1-[2-(2,4-dimethyl-phenylsulfanyl)-phenyl] Piperazine, DL-Lactate]
transformation of crystal form in water ([3]; listed as γ form): transforms into the beta form in aqueous slurry

SMILES: Cc1ccc(Sc2ccccc2N2CCNCC2)c(C)c1 [Fumarate, 1-[2-(2,4-dimethyl-phenylsulfanyl)-phenyl] piperazine]
Solubility [1]: 0.4 mg base/mL

SMILES: Br.Cc1ccc(Sc2ccccc2N2CCNCC2)c(C)c1 [HBr addition salt]
level of sleep and sexually related adverse events [5]: surprisingly low level

SMILES: Cc1ccc(Sc2ccccc2N2CCNCC2)c(C)c1 [HBr, α-form, 1-[2-(2,4-dimethyl-phenylsulfanyl)-phenyl] piperazine]
Solubility [1]: 2.0 mg base/mL

SMILES: Cc1ccc(Sc2ccccc2N2CCNCC2)c(C)c1 [HBr, β-form, 1-[2-(2,4-dimethyl-phenylsulfanyl)-phenyl] piperazine]
Solubility [1]: 1.2 mg base/mL

SMILES: Cc1ccc(Sc2ccccc2N2CCNCC2)c(C)c1 [HCl, 1-[2-(2,4-dimethyl-phenylsulfanyl)-phenyl] piperazine]
Solubility [1]: 3.0 mg base/mL

SMILES: Cc1ccc(Sc2ccccc2N2CCNCC2)c(C)c1 [HCl, MH, 1-[2-(2,4-dimethyl-phenylsulfanyl)-phenyl] piperazine]
Solubility [1]: 2.0 mg base/mL

SMILES: Cc1ccc(Sc2ccccc2N2CCNCC2)c(C)c1 [L-(+)-tartrate, 1-[2-(2,4-dimethyl-phenylsulfanyl)-phenyl] piperazine]
Solubility [1]: ~0.4 mg base/mL

SMILES: C[C@H](O)C(=O)O.Cc1ccc(Sc2ccccc2N2CCNCC2)c(C)c1 [L-lactate AH1, 1-[2-(2,4-dimethyl-phenylsulfanyl)-phenyl] Piperazine, L-Lactate]
transformation of crystal form in water ([3]; listed as AH1): transforms into monohydrate when exposed to water

Solubility, bound given for a form that could not be measured ([4]; room temperature, MH1 transforms into MH2 in aqueous slurry): na (>26) mg base/mL
SMILES: C[C@H](O)C(=O)O.Cc1ccc(Sc2ccccc2N2CCNCC2)c(C)c1 [L-lactate MH1, 1-[2-(2,4-dimethyl-phenylsulfanyl)-phenyl] Piperazine, L-Lactate]
transformation of crystal form in water ([3]; listed as MH1): transforms into the MH2 in aqueous slurry

aqueous solubility [4]: 26 mg/mL
Solubility ([4]; room temperature): 26 mg base/mL
pH at the solubility value ([4]; room temperature): 5.2
SMILES: C[C@H](O)C(=O)O.Cc1ccc(Sc2ccccc2N2CCNCC2)c(C)c1 [L-lactate MH2, 1-[2-(2,4-dimethyl-phenylsulfanyl)-phenyl] Piperazine, L-Lactate]

SMILES: Cc1ccc(Sc2ccccc2N2CCNCC2)c(C)c1 [Maleate, 1-[2-(2,4-dimethyl-phenylsulfanyl)-phenyl] piperazine]
Solubility [1]: ~1 mg base/mL

SMILES: Cc1ccc(Sc2ccccc2N2CCNCC2)c(C)c1 [Meso-tartrate, 1-[2-(2,4-dimethyl-phenylsulfanyl)-phenyl] piperazine]
Solubility [1]: ~0.7 mg base/mL

SMILES: Cc1ccc(Sc2ccccc2N2CCNCC2)c(C)c1 [Mesylate, 1-[2-(2,4-dimethyl-phenylsulfanyl)-phenyl] piperazine]
Solubility [1]: >45 mg base/mL

SMILES: Cc1ccc(Sc2ccccc2N2CCNCC2)c(C)c1 [Nitrate, 1-[2-(2,4-dimethyl-phenylsulfanyl)-phenyl] piperazine]
Solubility [1]: ~0.8 mg base/mL

SMILES: Cc1ccc(Sc2ccccc2N2CCNCC2)c(C)c1 [Phosphate, 1-[2-(2,4-dimethyl-phenylsulfanyl)-phenyl] piperazine]
Solubility [1]: ~1 mg base/mL

SMILES: Cc1ccc(Sc2ccccc2N2CCNCC2)c(C)c1 [Sulphate, 1-[2-(2,4-dimethyl-phenylsulfanyl)-phenyl] piperazine]
Solubility [1]: ~0.1 mg base/mL
